Results taken from the supplement of paper PMC8967900.

Experiments:
Test in all cases: selective drug sensitivity score (sDSS, relative to normal bone marrow) (sDSS (score)); higher = more potent and effective on the cell line relative to normal bone marrow cells
Details in all cases: 72 h
MN-60 = system: MN-60
KOPN-8 = system: KOPN-8
MOLT-16 = system: MOLT-16
REH = system: REH
NALM-16 = system: NALM-16
PEER = system: PEER
RPMI-8402 = system: RPMI-8402
KARPAS-45 = system: KARPAS-45
MHH-CALL-3 = system: MHH-CALL-3
JURKAT = system: JURKAT
SEM cells = system: SEM cells
CCRF-CEM = system: CCRF-CEM
COG-LL-355h = system: COG-LL-355h
DND-41 = system: DND-41
RCH-ACV = system: RCH-ACV
HAL-01 = system: HAL-01
TMD5 = system: TMD5
KASUMI-9 = system: KASUMI-9
380 = system: 380
P30-OHKUBO = system: P30-OHKUBO
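Note: ALL cell lines in 384-well plates, five doses spanning 10,000-fold, each plate scaled between vehicle and 100 µmol/L benzalkonium chloride controls, sDSS an adapted area-under-curve metric.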

SMILES | selective drug sensitivity score (MN-60) | selective drug sensitivity score (KOPN-8) | selective drug sensitivity score (MOLT-16) | selective drug sensitivity score (REH) | selective drug sensitivity score (NALM-16) | selective drug sensitivity score (PEER) | selective drug sensitivity score (RPMI-8402) | selective drug sensitivity score (KARPAS-45) | selective drug sensitivity score (MHH-CALL-3) | selective drug sensitivity score (JURKAT) | selective drug sensitivity score (SEM cells) | selective drug sensitivity score (CCRF-CEM) | selective drug sensitivity score (COG-LL-355h) | selective drug sensitivity score (DND-41) | selective drug sensitivity score (RCH-ACV) | selective drug sensitivity score (HAL-01) | selective drug sensitivity score (TMD5) | selective drug sensitivity score (KASUMI-9) | selective drug sensitivity score 380 | selective drug sensitivity score (P30-OHKUBO)
CNC(=O)c1ccccc1Sc1ccc2c(/C=C/c3ccccn3)n[nH]c2c1 [Axitinib] (top concentration 10000 nM) | -2.94 | 6.06 | 13.1 | 9.36 | -2.34 | 17.3 | 6.06 | 6.36 | -2.44 | 5.06 | 13.1 | 9.26 | -0.74 | 0.16 | 11.1 | -0.94 | 6.76 | 8.36 | 1.56 | 12.2
Cc1c(N)nc([C@H](CC(N)=O)NC[C@H](N)C(N)=O)nc1C(=O)N[C@H](C(=O)N[C@H](C)[C@@H](O)[C@H](C)C(=O)N[C@H](C(=O)NCCc1nc(-c2nc(C(=O)NCCC[S+](C)C)cs2)cs1)[C@@H](C)O)[C@@H](O[C@@H]1O[C@@H](CO)[C@@H](O)[C@H](O)[C@@H]1O[C@H]1O[C@H](CO)[C@@H](O)[C@H](OC(N)=O)[C@@H]1O)c1c[nH]cn1 [Bleomycin] (top concentration 10000 nM) | -1.86 | 7.34 | 4.54 | 9.44 | -1.86 | -0.66 | -1.36 | 1.94 | 4.14 | -0.96 | 11.1 | 1.04 | 4.14 | 1.14 | 7.54 | 8.44 | 7.34 | 6.24 | 4.34 | 4.44
CC(C)C[C@H](NC(=O)[C@H](Cc1ccccc1)NC(=O)c1cnccn1)B(O)O [Bortezomib] (top concentration 1000 nM) | -3.38 | 3.42 | 2.02 | 4.92 | 2.32 | 2.32 | 2.72 | 1.42 | 2.72 | 1.72 | 12.9 | 6.52 | 5.92 | 6.02 | 3.42 | 4.12 | 2.32 | 3.22 | 1.42 | 4.72
CCC/C=C/C=C/C(=O)O[C@H]1/C(=C/C(=O)OC)C[C@H]2C[C@H]([C@@H](C)O)OC(=O)C[C@H](O)C[C@@H]3C[C@H](OC(C)=O)C(C)(C)[C@](O)(C[C@@H]4C/C(=C/C(=O)OC)C[C@H](/C=C/C(C)(C)[C@]1(O)O2)O4)O3 [Bryostatin_1] (top concentration 100 nM) | -7.12 | 26.9 | -7.12 | -7.12 | -6.92 | -7.12 | -4.52 | -7.12 | -7.12 | -0.02 | -7.12 | -7.12 | -7.12 | 0.88 | -7.12 | 0.08 | -7.12 | 25.1 | -7.12 | 20.2
CO[C@H]1CC[C@H](N2C(=O)CNc3ncc(-c4ccc(C(C)(C)O)nc4)nc32)CC1 [CC-223] (top concentration 10000 nM) | 1.32 | 8.12 | 4.12 | 4.22 | 0.72 | 1.02 | 0.62 | 2.22 | 8.82 | 0.02 | 0.72 | 4.42 | 1.12 | 1.32 | 9.62 | 6.32 | 6.12 | 5.12 | 13 | 3.12
CN(C)c1cc2c(cc1Sc1nc3c(N)nccc3n1CCNCC(C)(C)C)OCO2 [CUDC-305] (top concentration 10000 nM) | 1.42 | 4.32 | 4.42 | 3.32 | 1.12 | 0.42 | 1.42 | 5.02 | -11.7 | 1.22 | 5.12 | 3.32 | 2.42 | 5.92 | 4.02 | 3.32 | 1.82 | 0.22 | 3.22 | 1.72
CO[C@H]1C(=O)[C@]2(C)[C@@H](OC)C[C@H]3OC[C@@]3(OC(C)=O)[C@H]2[C@H](OC(=O)c2ccccc2)[C@]2(O)C[C@H](OC(=O)[C@H](O)[C@@H](NC(=O)OC(C)(C)C)c3ccccc3)C(C)=C1C2(C)C [Cabazitaxel] (top concentration 1000 nM) | -5.32 | 17.9 | 26.7 | 17.9 | 11.4 | 23 | 15.5 | 18.9 | 6.78 | 18.3 | 19.5 | 20.5 | 2.58 | -4.32 | 22.9 | 11.7 | 2.88 | 18.7 | 25.7 | 20.3
C=CC(=O)Nc1cc2c(Nc3ccc(F)c(Cl)c3)ncnc2cc1OCCCN1CCOCC1 [Canertinib] (top concentration 10000 nM) | -4.14 | 4.36 | 1.86 | 0.26 | -0.14 | 2.26 | -1.54 | -0.24 | 12.6 | -1.14 | 2.56 | 1.56 | 5.96 | 1.36 | 1.26 | 2.76 | 4.96 | 3.76 | 3.16 | 2.26
CC(C)C[C@H](NC(=O)[C@H](CCc1ccccc1)NC(=O)CN1CCOCC1)C(=O)N[C@@H](Cc1ccccc1)C(=O)N[C@@H](CC(C)C)C(=O)[C@@]1(C)CO1 [Carfilzomib] (top concentration 1000 nM) | -7.34 | 1.46 | 1.36 | 3.16 | -3.64 | 2.56 | -2.74 | 0.66 | 2.86 | -4.04 | 8.56 | 4.86 | 5.06 | 5.36 | 0.86 | -8.84 | 0.16 | 1.76 | 0.06 | 3.46
O=C(c1ccc(F)c(F)c1Nc1ccc(I)cc1F)N1CC(O)([C@@H]2CCCCN2)C1 [Cobimetinib] (top concentration 1000 nM) | -3.68 | 2.12 | -3.68 | -3.68 | -1.38 | -2.78 | -3.68 | -3.68 | 6.22 | -3.68 | -2.48 | -3.58 | 5.02 | 2.62 | -3.68 | 0.32 | 1.32 | -2.38 | 0.82 | -3.68
COc1c(OCCCN2CCOCC2)ccc2c1N=C(NC(=O)c1cnc(N)nc1)N1CCN=C21 [Copanlisib] (top concentration 1000 nM) | 0.48 | 4.98 | 7.68 | 8.28 | 2.58 | -5.82 | 2.58 | 3.38 | -0.62 | -3.62 | 4.18 | 10.2 | 12.2 | -2.72 | 22.2 | 12.1 | -5.32 | 5.98 | 14.4 | 10.1
Cn1c(=O)n(-c2ccc(C(C)(C)C#N)cc2)c2c3cc(-c4cnc5ccccc5c4)ccc3ncc21 [Dactolisib] (top concentration 1000 nM) | 8.66 | 15.1 | 16.1 | 12.9 | 0.86 | 5.06 | 7.76 | 6.56 | 3.26 | 7.26 | 10.4 | 12.9 | 3.46 | 5.66 | 21.3 | 9.66 | 4.46 | 10.3 | 17.5 | 14.8
O=C(/C=C/c1cccnc1)NCCCCC1CCN(C(=O)c2ccccc2)CC1 [Daporinad] (top concentration 1000 nM) | 6.66 | 19.8 | 11.2 | 15.5 | 2.96 | 8.76 | 16.3 | 18.4 | 14.6 | 8.76 | 17.2 | 8.56 | 11 | 19.9 | 19.5 | 7.26 | 4.46 | 16.2 | 14.7 | 16
CC(=O)N(O)CCCCCNC(=O)CCC(=O)N(O)CCCCCNC(=O)CCC(=O)N(O)CCCCCN [Deferoxamine] (top concentration 10000 nM) | 5.16 | 10.4 | 6.26 | 2.46 | 4.66 | 2.16 | 2.06 | 5.16 | -0.54 | 2.26 | 2.66 | 6.86 | 1.46 | 5.16 | 3.86 | 8.46 | -0.24 | 1.16 | 1.96 | 0.76
Cc1cc(Nc2cc(N3CCN(C)CC3)nc(/C=C/c3ccccc3)n2)n[nH]1 [ENMD-2076] (top concentration 10000 nM) | -1.46 | 8.34 | 7.04 | 4.14 | -0.06 | 7.14 | 1.44 | 5.14 | -2.76 | 3.64 | 15 | 5.04 | 4.04 | -0.46 | 8.84 | 5.54 | -0.26 | 9.24 | 2.54 | 8.94
Cc1cnc(Nc2ccc(OCCN3CCCC3)cc2)nc1Nc1cccc(S(=O)(=O)NC(C)(C)C)c1 [Fedratinib] (top concentration 10000 nM) | -4.06 | -0.76 | -1.06 | -2.76 | -2.16 | -0.16 | -2.16 | 0.04 | 2.54 | -2.06 | 2.74 | -1.76 | 3.84 | 3.94 | -1.06 | -1.96 | -2.26 | -0.86 | -6.96 | -2.16
COc1ccc(-c2nc(N3CCOCC3)c3sc(CN(C)c4ncc(C(=O)NO)cn4)cc3n2)cn1 [Fimepinostat (CUDC-907)] (top concentration 10000 nM) | -1.22 | 10.9 | 8.68 | 2.78 | 1.78 | 1.98 | 5.28 | 9.58 | 10.9 | 0.98 | 8.68 | 6.88 | 7.28 | 4.68 | 10.9 | 0.98 | 5.18 | 10.7 | 10.3 | 8.68
